This note sets out measurements from ChEMBL document CHEMBL1275501, “Plasmid-mediated quinolone resistance pump QepA2 in an Escherichia coli isolate from France” (2008).

Values after ≈ are worked out from the molar mass of the structure shown.

The test system of assay [1] is Escherichia coli. Nature of the assay: Antimicrobial activity against Escherichia coli BicA expressing blaTEM-1, blaCTX-M-15 and qepA2 gene by disk diffusion method in presence of beta-lactamase inhibitor Tazobactam. It counts as functional. In general terms: Agar diffusion results depend on both activity and mobility in agar.
Assay [2] deals with Escherichia coli. The assay can be described thus: Antimicrobial activity against Escherichia coli TOP10 harboring pQep plasmid carrying qepA2 gene by disk diffusion method. It counts as functional.
The test system of assay [3] is Escherichia coli. Nature of the assay: Antimicrobial activity against Escherichia coli BicA expressing blaTEM-1, blaCTX-M-15 and qepA2 gene by disk diffusion method.
The subject of assay [4] is Escherichia coli. Nature of the assay: Antimicrobial activity against azide-resistant Escherichia coli J53 harboring pCTX-M carrying blaCTX-M-15 and pQep plasmid carrying qepA2 gene by disk diffusion method in presence of beta-lactamase inhibitor Tazobactam. It counts as functional.
The subject of assay [5] is Escherichia coli. Nature of the assay: Antimicrobial activity against azide-resistant Escherichia coli J53 harboring pCTX-M plasmid carrying blaCTX-M-15 gene by disk diffusion method in presence of beta-lactamase inhibitor Tazobactam. It counts as functional.
The test system of assay [6] is Escherichia coli. The assay can be described thus: Antimicrobial activity against azide-resistant Escherichia coli J53 by disk diffusion method in presence of beta-lactamase inhibitor Tazobactam. It counts as functional.
In assay [7] the test system is Escherichia coli. Nature of the assay: Antimicrobial activity against Escherichia coli TOP10 harboring pQep plasmid carrying qepA2 gene by disk diffusion method in presence of beta-lactamase inhibitor Tazobactam. It counts as functional.
For assay [8], the system named is Escherichia coli. Nature of the assay: Antimicrobial activity against azide-resistant Escherichia coli J53 harboring pCTX-M carrying blaCTX-M-15 and pQep plasmid carrying qepA2 gene by disk diffusion method. It counts as functional.
Assay [9] has as its system Escherichia coli. Nature of the assay: Antimicrobial activity against Escherichia coli TOP10 by disk diffusion method. It counts as functional.
Assay [10] concerns Escherichia coli. The assay can be described thus: Antimicrobial activity against Escherichia coli TOP10 by disk diffusion method in presence of beta-lactamase inhibitor Tazobactam. It counts as functional.
Assay [11] deals with Escherichia coli. Nature of the assay: Antimicrobial activity against azide-resistant Escherichia coli J53 harboring pCTX-M plasmid carrying blaCTX-M-15 gene by disk diffusion method. It counts as functional.
In assay [12] the test system is Escherichia coli. Nature of the assay: Antimicrobial activity against azide-resistant Escherichia coli J53 by disk diffusion method. It counts as functional.

Broadly, the MIC is the least concentration at which growth counts as inhibited. Take `CCN1CCN(C(=O)N[C@@H](C(=O)N[C@@H]2C(=O)N3[C@@H]2SC(C)(C)[C@@H]3C(=O)O)c2ccccc2)C(=O)C1=O` [PIPERACILLIN]: the minimal inhibitory concentration (MIC) is 4 µg/mL in the assay on Escherichia coli [1]; > 256 µg/mL against Escherichia coli [2]; > 256 µg/mL with Escherichia coli [3]; 2 µg/mL in the assay on Escherichia coli [4]; 2 µg/mL in the assay on Escherichia coli [5]; 1 µg/mL in the assay with Escherichia coli [6]. Further, the minimum inhibitory concentration (MIC) in the assay on Escherichia coli [7] was 2 µg/mL; with Escherichia coli [8], > 256 µg/mL; against Escherichia coli [9] it was 2 µg/mL (≈ 3.86 µM); in the assay with Escherichia coli [10] it was 1 µg/mL; in the assay with Escherichia coli [11], > 256 µg/mL; with Escherichia coli [12], 2 µg/mL (≈ 3.86 µM).
